The supplement of paper PMC6045584

Tests used:
Assay in all cases: area under dose-response curve of surviving fraction (unscaled, Aref=0) (surviving fraction x log10(nM)); higher = more resistant
Details in all cases: exposure time: 5 days; dose range 0.5-1000 nM
[1] = compound: CO[C@H]1C[C@@H]2CC[C@@H](C)[C@@](O)(O2)C(=O)C(=O)N2CCCC[C@H]2C(=O)O[C@H]([C@H](C)C[C@@H]2CC[C@@H](OCCO)[C@H](OC)C2)CC(=O)[C@H](C)/C=C(\C)[C@@H](O)[C@@H](OC)C(=O)[C@H](C)C[C@H](C)/C=C/C=C/C=C/1C [EVEROLIMUS]
Outline: (§1)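 Inhibitor was applied to tumour cell lines at eight concentrations (0.5 to 1000 nM) for five days in 384-well plates. Luminescence from CellTiter-Glo, scaled to DMSO-only wells, gave surviving fractions in three screens per line, and these were fitted by 3-parameter logistic regression with the drc R package. The area under the curve is an unscaled activity area. Aref was 0, and dose was on a log10 scale.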

[2] = compound: CN(Cc1cnc2nc(N)nc(N)c2n1)c1ccc(C(=O)N[C@@H](CCC(=O)O)C(=O)O)cc1 [METHOTREXATE]
Outline: as §1

[3] = compound: C#Cc1cccc(Nc2ncnc3cc(OCCOC)c(OCCOC)cc23)c1 [ERLOTINIB]
Outline: as §1

[4] = compound: COc1cc(CCc2cc(NC(=O)c3ccc(N4CC(C)NC(C)C4)cc3)n[nH]2)cc(OC)c1 [AZD4547]
Outline: as §1

[5] = compound: NC1(c2ccc(-c3nc4ccn5c(=O)[nH]nc5c4cc3-c3ccccc3)cc2)CCC1 [MK2206]
Outline: as §1

[6] = compound: COc1cc([C@@H]2c3cc4c(cc3[C@@H](O[C@@H]3O[C@@H]5CO[C@@H](C)O[C@H]5[C@H](O)[C@H]3O)[C@H]3COC(=O)[C@H]23)OCO4)cc(OC)c1O [ETOPOSIDE]
Outline: as §1

[7] = compound: CCC1=C[C@@H]2CN(C1)Cc1c([nH]c3ccccc13)[C@@](C(=O)OC)(c1cc3c(cc1OC)N(C)[C@H]1[C@@](O)(C(=O)OC)[C@H](OC(C)=O)[C@]4(CC)C=CCN5CC[C@]31[C@@H]54)C2 [VINORELBINE]
Outline: as §1

[8] = compound: O=C(NOCC1CC1)c1ccc(F)c(F)c1Nc1ccc(I)cc1Cl
Outline: as §1

[9] = compound: CCN(CC)CCNC(=O)c1c(C)[nH]c(/C=C2\C(=O)Nc3ccc(F)cc32)c1C [SUNITINIB]
Outline: as §1

[10] = compound: CCCS(=O)(=O)Nc1ccc(F)c(C(=O)c2c[nH]c3ncc(Cl)cc23)c1F [PLX-4720]
Outline: as §1

[11] = compound: Nc1ccn([C@@H]2O[C@H](CO)[C@@H](O)C2(F)F)c(=O)n1 [GEMCITABINE]
Outline: as §1

[12] = compound: Cc1nc(Nc2n[nH]c3c2CN(C(=O)N[C@H](CN(C)C)c2ccccc2)C3(C)C)c2sccc2n1
Outline: as §1

[13] = compound: O=C(O)CC[C@H]1CC[C@@](c2cc(F)ccc2F)(S(=O)(=O)c2ccc(Cl)cc2)CC1 [MK0752]
Outline: as §1

Test System | area under dose-response curve [1] | area under dose-response curve [2] | area under dose-response curve [3] | area under dose-response curve [4] | area under dose-response curve [5] | area under dose-response curve [6] | area under dose-response curve [7] | area under dose-response curve [8] | area under dose-response curve [9] | area under dose-response curve [10] | area under dose-response curve [11] | area under dose-response curve [12] | area under dose-response curve [13]
BT20 BREAST | 1.35 | 3.51 | 3.67 | 3.58 | 3.76 | 2.9 | 1.54 | 3.11 | 2.95 | 3 | 1.55 | 2.78 | –
SG27 HEADNECK | 3.13 | – | 3.58 | 2.8 | – | 3.45 | 3.81 | – | 3.67 | 2.98 | 3.22 | 1.72 | –
SG28 HEADNECK | – | – | – | – | – | 3.66 | 2.47 | 2.72 | 2.12 | 2.51 | – | 2.12 | 3.56
MDAMB157 BREAST | 2.25 | 3.15 | 3.29 | 2.38 | – | 2.68 | 1.41 | 2.81 | 2.52 | 3.07 | – | 1.55 | –
HMT3552 BREAST | 1.98 | 2.25 | 3.18 | – | 3.05 | – | – | – | – | – | 2.53 | – | –
SCC47 HEADNECK | 3.2 | 2.96 | – | 3.44 | 3.26 | 3.17 | 1.84 | 2.91 | 3.14 | 3.12 | 2.22 | 1.99 | –
HU09 BONE | – | 2.42 | – | 2.88 | 2.59 | 2.6 | 1.47 | – | 1.9 | 3.1 | 0.594 | 1.37 | 3.54
SAOS2 BONE | 3.1 | – | – | – | 3.03 | 3.15 | 1.6 | 3.22 | 2.75 | 3.06 | 0.983 | 1.41 | 3.89
OSHN BONE | 3.41 | 1.28 | 3.68 | 3.57 | 3.58 | 3 | 1.83 | 3.24 | 3.18 | 3.06 | – | 1.67 | –
NOS1 BONE | 1.75 | 3.88 | – | 2.71 | 2.74 | – | 1.92 | – | 1.78 | 3.29 | 2.31 | 1.98 | –
HCC1806 BREAST | 2.74 | 1.55 | – | 3.6 | – | 2.5 | 1.33 | – | 2.29 | 2.86 | 0.258 | 0.463 | 3.93
SG31 HEADNECK | 2.18 | 3.94 | – | 3.1 | – | – | 2.07 | 2.78 | 2.47 | 2.73 | 2.51 | 2.15 | 3.35
HMLE3 BREAST | 2.01 | 2.58 | – | 2.25 | 2.97 | 2.53 | 1.81 | 2.57 | 2.08 | 2.8 | 1.1 | 0.944 | –
VP229 BREAST | 1.96 | 3.77 | 2.92 | – | – | 3.78 | 2 | – | 2.41 | 3.1 | 1.97 | 1.92 | –
